Results: US20200179428A1, “CYCLIC PHOSPHATE SUBSTITUTED NUCLEOSIDE DERIVATIVES AND METHODS OF USE THEREOF FOR THE TREATMENT OF VIRAL DISEASES” (priority 2016, published 2020)
pEC50: −log10 of the molar value. Read-outs that look alike come from different tables or passages of the source.

Experiments:
[1] = Cytotoxicity MTS assay (CellTiter 96 Aqueous One Solution) in replicon cells; type: cell-based; conditions: EDU, read-out: CC50 (EDU) Range; for CC50 at 3 days: HCV replicon cells (1b-Con1)
Description: (§1) To measure cell-based anti-HCV activity of the compounds of the present invention, replicon cells (1b-Con1) are seeded at 5000 cells/well in 96-well plates one day prior to treatment with a compound of the invention. Various concentrations of a test compound of the invention in DMSO are then added to the replicon cells, with the final concentration of DMSO at 0.5% and fetal bovine serum at 10% in the assay media. Cells are harvested three days post-dosing, and the replicon RNA level is determined using real-time RT-PCR (Taqman assay) with GAPDH RNA as endogenous control. EC50 values are calculated from experiments with 10 serial twofold dilutions of the inhibitor in triplicate. To measure cytotoxicity in replicon cells of an inhibitor, an MTS assay is performed according to the manufacturer's protocol for CellTiter 96 Aqueous One Solution Cell Proliferation Assay (Promega, Cat # G3580) three days post dosing on cells treated identically as in replicon activity assays. […] Cytotoxicity in other types of cells may be measured using the same MTS protocol.

replicon cells (1b-Con1) = experiment: Replicon activity assay (replicon RNA level by real-time RT-PCR, Taqman); type: cell-based; conditions: HCV replicon genotype 1b, read-out: EC50 (1b) Range
Description: as §1

Structure (SMILES)	CC50 at 3 days [1] [µM]	pEC50 (replicon cells (1b-Con1); Hepatitis C virus)	pEC50 (replicon cells (1b-Con1))	CC50 [1] [µM]
CC(C)OC(=O)C(CCO[P@]1(=O)OC[C@H]2O[C@@H](n3ccc(=O)[nH]c3=O)[C@](C)(N)[C@@H]2O1)C(C)C (stereo partly shown) [Compound 24B]	> 50	< 5.00	–	–
CC(C)OC(=O)C(C)CCOP1(=O)OC[C@H]2O[C@@H](n3ccc(=O)[nH]c3=O)[C@](C)(Cl)[C@@H]2O1 (stereo partly shown) [Compound 39A]	> 50	≥ 6.60	–	–
CC(C)OC(=O)CC(F)(F)CO[P@@]1(=O)OC[C@H]2O[C@@H](n3ccc(=O)[nH]c3=O)[C@](C)(N)[C@@H]2O1 [Compound 49A]	> 50	< 5.00	–	–
CC(C)OC(=O)CC(C)(C)CO[P@@]1(=O)OC[C@H]2O[C@@H](n3ccc(=O)[nH]c3=O)[C@](C)(N)[C@@H]2O1 [Compound 17A]	> 50	< 5.00	–	–
CO[C@H](CCO[P@]1(=O)OC[C@H]2O[C@@H](n3ccc(=O)[nH]c3=O)[C@](C)(N)[C@@H]2O1)C(=O)OC(C)C [Compound 45B]	> 50	< 5.00	–	–
CC(CCOP1(=O)OC[C@H]2O[C@@H](n3ccc(=O)[nH]c3=O)[C@](C)(N)[C@@H]2O1)C(=O)OC1CCCC1 (single isomer, unassigned) [Compound 14A1]	> 50	–	< 5.00	–
CO[C@@H](CO[P@@]1(=O)OC[C@H]2O[C@@H](n3ccc(=O)[nH]c3=O)[C@](C)(N)[C@@H]2O1)CC(=O)OC(C)C [Compound 63A]	> 50	< 5.00	–	–
CC(C)OC(=O)[C@@H](C)CCOP1(=O)OC[C@H]2O[C@@H](n3cnc4c(N)ncnc43)[C@](C)(Cl)[C@@H]2O1 (single isomer, unassigned) [Compound 35A2]	> 50	≥ 6.60	–	–
CC(C)OC(=O)[C@@H](C)CCO[P@@]1(=O)OC[C@H]2O[C@@H](n3cnc4c(N)ncnc43)[C@](C)(N)[C@@H]2O1 [Compound 73A]	> 50	< 5.00	–	–
CC(C)OC(=O)C(C)CCOP1(=O)OC[C@H]2O[C@@H](n3cnc4c(N)ncnc43)[C@](C)(Cl)[C@@H]2O1 (single isomer, unassigned) [Compound 35A1]	> 50	≥ 6.60	–	–
COC(=O)N[C@@H](CCO[P@]1(=O)OC[C@H]2O[C@@H](n3ccc(=O)[nH]c3=O)[C@](C)(N)[C@@H]2O1)C(=O)OC(C)C [Compound 42B]	> 50	< 5.00	–	–
C#C[C@@]1(O)[C@@H]2OP(=O)(OCCC(C)C(=O)OC(C)C)OC[C@H]2O[C@H]1n1ccc(=O)[nH]c1=O (stereo partly shown) [Compound 7A]	–	6.00 to 6.60	–	> 50
C#C[C@]1(C)[C@@H]2OP(=O)(OCCC(C)C(=O)OC3CCCC3)OC[C@H]2O[C@H]1n1ccc(=O)[nH]c1=O (stereo partly shown) [Compound 2A]	> 50	5.00 to 6.00	–	–
CCOC(=O)C1(CCO[P@@]2(=O)OC[C@H]3O[C@@H](n4ccc(=O)[nH]c4=O)[C@](C)(N)[C@@H]3O2)CC1 [Compound 28A]	> 50	< 5.00	–	–
C#C[C@]1(C)[C@@H]2O[P@@](=O)(OCC[C@@H](OC)C(=O)OC(C)C)OC[C@H]2O[C@H]1n1ccc(=O)[nH]c1=O [Compound 57A]	> 50	5.00 to 6.00	–	–
C#C[C@]1(C)[C@@H]2O[P@](=O)(OCCC(CC)C(=O)OC3CCCC3)OC[C@H]2O[C@H]1n1ccc(=O)[nH]c1=O (stereo partly shown) [Compound 30B]	> 50	< 5.00	–	–
C#C[C@]1(C)[C@@H]2O[P@](=O)(OC[C@H](NC(=O)OC)C(=O)OC(C)C)OC[C@H]2O[C@H]1n1ccc(=O)[nH]c1=O [Compound 40B]	> 50	< 5.00	–	–
C#C[C@]1(C)[C@@H]2OP(=O)(OCCC(C)C(=O)OC3CCCC3)OC[C@H]2O[C@H]1n1ccc(=O)[nH]c1=O (single isomer, unassigned) [Compound 2B]	> 50	≥ 6.60	–	–

Structure (SMILES)	CC50 at 3 days [1] [µM]	pEC50 (replicon cells (1b-Con1); Hepatitis C virus)	pEC50 (replicon cells (1b-Con1))	CC50 [1] [µM]
CC(C)OC(=O)C(C)(C)CO[P@@]1(=O)OC[C@H]2O[C@@H](n3ccc(=O)[nH]c3=O)[C@](C)(C#N)[C@@H]2O1 [Compound 16A]	> 50	< 5.00	–	–
CC(C)OC(=O)C1CC1CO[P@]1(=O)OC[C@H]2O[C@@H](n3ccc(=O)[nH]c3=O)[C@](C)(N)[C@@H]2O1 (stereo partly shown) [Compound 47B]	> 50	< 5.00	–	–
CC(CCO[P@@]1(=O)OC[C@H]2O[C@@H](n3ccc(=O)[nH]c3=O)[C@](C)(N)[C@@H]2O1)C(=O)OC1CCCCC1 (stereo partly shown) [Compound 78A]	> 50	< 5.00	–	–
CC(C)OC(=O)[C@H](C)CCOP1(=O)OC[C@@]2(F)O[C@@H](n3ccc(=O)[nH]c3=O)[C@](C)(O)[C@@H]2O1 (stereo partly shown) [Compound 86A]	> 50	5.00 to 6.00	–	–
C#C[C@@]1(O)[C@@H]2OP(=O)(OCC[C@H](C)C(=O)OC3CCCC3)OC[C@H]2O[C@H]1n1ccc(=O)[nH]c1=O (single isomer, unassigned) [Compound 8A1]	> 50	6.00 to 6.60	–	–
C#C[C@]1(C)[C@@H]2O[P@](=O)(OC[C@H](F)CC(=O)OC(C)C)OC[C@H]2O[C@H]1n1ccc(=O)[nH]c1=O [Compound 66B]	> 50	6.00 to 6.60	–	–
CCC(CCO[P@]1(=O)OC[C@H]2O[C@@H](n3ccc(=O)[nH]c3=O)[C@](C)(N)[C@@H]2O1)C(=O)OC(C)C (stereo partly shown) [Compound 23B]	> 50	< 5.00	–	–
C#C[C@@]1(O)[C@@H]2OP(=O)(OCC[C@@H](C)C(=O)OC(C)C)OC[C@H]2O[C@H]1n1ccc(=O)[nH]c1=O (single isomer, unassigned) [Compound 7A1]	> 50	6.00 to 6.60	–	–
CO[C@H](CO[P@@]1(=O)OC[C@H]2O[C@@H](n3ccc(=O)[nH]c3=O)[C@](C)(N)[C@@H]2O1)[C@@H](OC)C(=O)OC(C)C [Compound 48A]	> 50	< 5.00	–	–
CC(C)OC(=O)C(CCO[P@]1(=O)OC[C@H]2O[C@@H](n3ccc(=O)[nH]c3=O)[C@](C)(N)[C@@H]2O1)c1ccccc1 (stereo partly shown) [Compound 33B]	> 50	< 5.00	–	–
C#C[C@]1(C)[C@@H]2OP(=O)(OCC(C)CC(=O)OC(C)C)OC[C@H]2O[C@H]1n1ccc(=O)[nH]c1=O (single isomer, unassigned) [Compound 6A]	> 50	–	5.00 to 6.00	–
CC(C)OC(=O)C(CCO[P@@]1(=O)OC[C@H]2O[C@@H](n3ccc(=O)[nH]c3=O)[C@](C)(N)[C@@H]2O1)C(C)C (stereo partly shown) [Compound 24A]	> 50	< 5.00	–	–
CC(C)OC(=O)COCCO[P@]1(=O)OC[C@H]2O[C@@H](n3ccc(=O)[nH]c3=O)[C@](C)(N)[C@@H]2O1 [Compound 69B]	> 50	< 5.00	–	–
CC(C)OC(=O)CS(=O)(=O)CCO[P@@]1(=O)OC[C@H]2O[C@@H](n3ccc(=O)[nH]c3=O)[C@](C)(N)[C@@H]2O1 [Compound 58A]	< 50	< 5.00	–	–
CCCCCOC(=O)C(C)CCO[P@]1(=O)OC[C@H]2O[C@@H](n3ccc(=O)[nH]c3=O)[C@](C)(N)[C@@H]2O1 (stereo partly shown) [Compound 79B]	> 50	5.00 to 6.00	–	–
CC(C)OC(=O)[C@@H](C)CCO[P@@]1(=O)OC[C@H]2O[C@@H](n3cnc4c(N)ncnc43)[C@](C)(C#N)[C@@H]2O1 [Compound 71A]	> 50	< 5.00	–	–
CC(C)OC(=O)C(C)(C)CO[P@@]1(=O)OC[C@H]2O[C@@H](n3ccc(=O)[nH]c3=O)[C@](C)(N)[C@@H]2O1 [Compound 15A]	> 50	< 5.00	–	–
